Data: ChEMBL document CHEMBL1201862, “PubChem BioAssay data set” (2004)
The source made the active and inactive calls.

Columns and labels:
[1] = T. cruzi growth inhibition in host cells, dose response, cell-based, plate reader, dry powder, set 2 (AID 652275); type: functional
[2] = NIH-3T3 fibroblast cytotoxicity, dose response, cytotoxicity control, cell-based, fluorescence, Alamar Blue, secondary assay (AID 2327); type: functional;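 note: NIH-3T3 mouse fibroblasts cultured with fluconazole at 8 µg/mL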
[3] = test system: Streptococcus sp. 'group A'; test: growth inhibition of control SK(-) GAS strain, dose response, counter-screen for streptokinase expression inhibitor project, luminescence, kanamycin, BacTiterGlo, confirmation (AID 1900); type: functional, organism-based
cells [4] = type: functional, cell-based
[5] = target: T1, Heat shock factor protein 1 (Mus musculus, UniProt P38532); test: inhibition of MG132-induced HSE-luciferase signal, confirmation, cell-based, NIH3T3, luminescence, dose retest (AID 2382); type: functional;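 note: NIH3T3 fibroblasts with HSF1-driven luciferase reporter stressed by proteasome inhibitor MG132; luminescence from HSF1-driven luciferase expression after 8 hours of MG132 stress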
T1 sequence (P38532 whole entry): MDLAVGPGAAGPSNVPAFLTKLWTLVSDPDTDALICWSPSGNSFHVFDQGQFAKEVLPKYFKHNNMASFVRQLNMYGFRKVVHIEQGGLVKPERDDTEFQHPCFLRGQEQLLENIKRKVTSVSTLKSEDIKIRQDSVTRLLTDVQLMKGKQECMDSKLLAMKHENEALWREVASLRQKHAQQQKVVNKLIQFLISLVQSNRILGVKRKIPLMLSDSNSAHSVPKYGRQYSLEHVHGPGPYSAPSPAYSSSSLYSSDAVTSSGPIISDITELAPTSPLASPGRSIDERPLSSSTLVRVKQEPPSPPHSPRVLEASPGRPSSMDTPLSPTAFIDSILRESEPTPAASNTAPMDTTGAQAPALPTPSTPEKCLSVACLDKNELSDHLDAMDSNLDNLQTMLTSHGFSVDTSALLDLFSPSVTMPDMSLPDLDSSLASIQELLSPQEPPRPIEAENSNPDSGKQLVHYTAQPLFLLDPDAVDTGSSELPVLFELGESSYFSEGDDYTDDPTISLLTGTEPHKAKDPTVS

[6] = C. albicans growth with fluconazole, confirmation, fluorescence, retest (AID 2467); type: functional, cell-based
cells [7] = type: functional, cell-based; remark: listed apart in the source
Streptococcus = test: Group A Streptococcus viability loss, dose response, counter-screen for streptokinase expression inhibitor project, luminescence, BacTiterGlo (AID 1915); type: functional, organism-based;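 note: potency for reduction of bacterial viability or growth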
Nonstructural protein 1 = Nonstructural protein 1 (Influenza A virus, UniProt Q194T2); type: functional, Influenza A virus (A/California/07/2009(H1N1))
[8] = target: Heat shock protein HSP 90-alpha (Homo sapiens, UniProt P07900); type: functional, organism-based
Vero = test: cells; type: functional; conditions: Chlorocebus sabaeus
Caspase-6 = target: T2, Caspase-6 (Homo sapiens, UniProt P55212); test: human caspase-6 inhibitors, dose response, biochemical, VEID-R110 fluorescence, cherry-pick (AID 720632)
T2 sequence (P55212 whole entry): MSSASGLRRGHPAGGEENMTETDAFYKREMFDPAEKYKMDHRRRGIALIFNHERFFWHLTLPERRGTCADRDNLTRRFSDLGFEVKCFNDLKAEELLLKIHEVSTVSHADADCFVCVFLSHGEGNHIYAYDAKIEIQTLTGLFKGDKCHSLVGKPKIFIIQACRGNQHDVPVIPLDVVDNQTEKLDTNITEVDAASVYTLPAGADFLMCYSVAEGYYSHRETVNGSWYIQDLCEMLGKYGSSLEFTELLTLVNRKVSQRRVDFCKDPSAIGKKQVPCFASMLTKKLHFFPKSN

[9] = target: T3, Histone-lysine N-methyltransferase NSD2 (Homo sapiens, UniProt O96028); type: biochemical
T3 sequence (O96028 whole entry): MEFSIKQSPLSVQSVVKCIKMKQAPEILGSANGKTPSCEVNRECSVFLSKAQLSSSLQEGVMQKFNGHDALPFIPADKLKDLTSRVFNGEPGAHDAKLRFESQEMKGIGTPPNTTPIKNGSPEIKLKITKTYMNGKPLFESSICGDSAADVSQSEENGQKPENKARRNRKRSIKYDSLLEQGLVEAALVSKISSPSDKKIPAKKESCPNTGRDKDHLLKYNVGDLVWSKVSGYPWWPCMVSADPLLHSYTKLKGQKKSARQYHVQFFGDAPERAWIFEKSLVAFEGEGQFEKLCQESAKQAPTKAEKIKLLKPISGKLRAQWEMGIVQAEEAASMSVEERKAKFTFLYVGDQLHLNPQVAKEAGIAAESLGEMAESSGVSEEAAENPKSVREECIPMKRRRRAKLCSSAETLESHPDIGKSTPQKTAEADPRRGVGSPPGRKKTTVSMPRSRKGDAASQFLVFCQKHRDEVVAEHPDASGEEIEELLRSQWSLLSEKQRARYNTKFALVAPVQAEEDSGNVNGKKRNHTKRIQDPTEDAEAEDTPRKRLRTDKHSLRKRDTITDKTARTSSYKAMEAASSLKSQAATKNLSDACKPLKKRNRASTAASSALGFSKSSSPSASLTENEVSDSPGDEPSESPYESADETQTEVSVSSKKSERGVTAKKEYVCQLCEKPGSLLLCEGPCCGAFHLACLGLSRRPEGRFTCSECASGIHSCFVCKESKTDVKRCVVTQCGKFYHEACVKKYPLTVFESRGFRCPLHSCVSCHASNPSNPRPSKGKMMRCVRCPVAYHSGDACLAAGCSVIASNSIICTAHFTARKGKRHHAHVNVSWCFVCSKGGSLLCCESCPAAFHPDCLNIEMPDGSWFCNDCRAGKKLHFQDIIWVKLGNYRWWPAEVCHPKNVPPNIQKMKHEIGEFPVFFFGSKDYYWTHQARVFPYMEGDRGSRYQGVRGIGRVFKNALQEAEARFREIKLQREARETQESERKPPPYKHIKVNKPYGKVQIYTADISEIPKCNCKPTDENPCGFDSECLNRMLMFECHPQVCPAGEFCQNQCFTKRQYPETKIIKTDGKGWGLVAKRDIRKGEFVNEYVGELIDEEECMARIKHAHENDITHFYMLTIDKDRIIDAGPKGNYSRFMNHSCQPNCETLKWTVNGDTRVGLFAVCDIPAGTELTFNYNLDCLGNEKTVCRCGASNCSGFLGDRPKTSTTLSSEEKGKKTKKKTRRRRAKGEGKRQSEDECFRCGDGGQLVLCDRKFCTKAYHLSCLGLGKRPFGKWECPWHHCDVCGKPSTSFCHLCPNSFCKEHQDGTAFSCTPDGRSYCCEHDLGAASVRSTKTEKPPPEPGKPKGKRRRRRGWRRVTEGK

Beta-galactosidase = Beta-galactosidase (Escherichia coli, UniProt Q8VNN2); test: Dose response counterscreen for EBI2 assay utilizing the enzyme, b-galactosidase.; type: functional
[10] = target: T4, Long-chain-fatty-acid--AMP ligase FadD28 (Mycobacterium tuberculosis, UniProt P9WQ59); test: Fluorescence polarization aasay to screen for inhibitors that compete for the binding of FadD28 to a bisubstrate Measured in Biochemical System Using Plate Reader - 2147-01_Inhibitor_Dose_CherryPick_Activity.; type: functional, Mycobacterium tuberculosis H37Rv
T4 sequence (P9WQ59 whole entry): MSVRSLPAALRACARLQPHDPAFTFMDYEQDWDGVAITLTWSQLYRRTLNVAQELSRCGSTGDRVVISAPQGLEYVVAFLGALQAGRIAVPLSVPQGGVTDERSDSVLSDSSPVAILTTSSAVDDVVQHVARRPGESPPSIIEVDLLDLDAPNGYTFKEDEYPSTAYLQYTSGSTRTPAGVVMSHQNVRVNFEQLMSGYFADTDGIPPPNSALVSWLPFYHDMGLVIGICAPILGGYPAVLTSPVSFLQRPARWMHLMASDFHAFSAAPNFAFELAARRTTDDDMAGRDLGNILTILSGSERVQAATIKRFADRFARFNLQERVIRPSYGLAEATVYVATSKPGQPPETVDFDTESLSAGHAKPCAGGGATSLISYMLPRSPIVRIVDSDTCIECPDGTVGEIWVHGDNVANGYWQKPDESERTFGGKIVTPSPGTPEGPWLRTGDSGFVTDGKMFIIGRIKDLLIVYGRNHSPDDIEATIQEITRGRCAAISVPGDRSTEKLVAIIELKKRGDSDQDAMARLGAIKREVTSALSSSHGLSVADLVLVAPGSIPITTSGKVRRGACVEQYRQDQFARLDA

[11] = inhibitors of HIV Env-driven cell fusion, dose response, cherry-pick (AID 652057); type: functional, cell-based
[12] = CEM21 lymphoblast cell cytotoxicity, dose response, cytotoxicity control for viral fusion inhibitor project, CellTiter-Glo luminescence, cherry-picked (AID 652042); type: functional, cell-based;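 note: potency for signal decrease meaning cytotoxicity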
[13] = ZM109 Env clade C HIV-1 fusion inhibitors, dose response, HeLa effector, CEM target cells, luciferase, cherry-pick (AID 652058); type: functional, cell-based
[14] = off-target signal loss in HeLa-CEM21 co-culture – HeLa F-luc CTL cells, cherry-picked, counter-screen for HIV-1 Env fusion inhibitor project, dose response (AID 652040); type: functional, cell-based;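 note: potency for signal decrease marking cytotoxic or nonspecific inhibition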
[15] = inhibitors of clade B AD8 Env fusion, dose response, cell-based, cherry-pick (AID 652062); type: functional;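 note: luciferase signal from cell-cell fusion driven by HIV-1 clade B AD8 Env; potency is for inhibitors of fusion seen as a drop in luminescence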

Sequence of Beta-galactosidase (Q8VNN2 whole entry): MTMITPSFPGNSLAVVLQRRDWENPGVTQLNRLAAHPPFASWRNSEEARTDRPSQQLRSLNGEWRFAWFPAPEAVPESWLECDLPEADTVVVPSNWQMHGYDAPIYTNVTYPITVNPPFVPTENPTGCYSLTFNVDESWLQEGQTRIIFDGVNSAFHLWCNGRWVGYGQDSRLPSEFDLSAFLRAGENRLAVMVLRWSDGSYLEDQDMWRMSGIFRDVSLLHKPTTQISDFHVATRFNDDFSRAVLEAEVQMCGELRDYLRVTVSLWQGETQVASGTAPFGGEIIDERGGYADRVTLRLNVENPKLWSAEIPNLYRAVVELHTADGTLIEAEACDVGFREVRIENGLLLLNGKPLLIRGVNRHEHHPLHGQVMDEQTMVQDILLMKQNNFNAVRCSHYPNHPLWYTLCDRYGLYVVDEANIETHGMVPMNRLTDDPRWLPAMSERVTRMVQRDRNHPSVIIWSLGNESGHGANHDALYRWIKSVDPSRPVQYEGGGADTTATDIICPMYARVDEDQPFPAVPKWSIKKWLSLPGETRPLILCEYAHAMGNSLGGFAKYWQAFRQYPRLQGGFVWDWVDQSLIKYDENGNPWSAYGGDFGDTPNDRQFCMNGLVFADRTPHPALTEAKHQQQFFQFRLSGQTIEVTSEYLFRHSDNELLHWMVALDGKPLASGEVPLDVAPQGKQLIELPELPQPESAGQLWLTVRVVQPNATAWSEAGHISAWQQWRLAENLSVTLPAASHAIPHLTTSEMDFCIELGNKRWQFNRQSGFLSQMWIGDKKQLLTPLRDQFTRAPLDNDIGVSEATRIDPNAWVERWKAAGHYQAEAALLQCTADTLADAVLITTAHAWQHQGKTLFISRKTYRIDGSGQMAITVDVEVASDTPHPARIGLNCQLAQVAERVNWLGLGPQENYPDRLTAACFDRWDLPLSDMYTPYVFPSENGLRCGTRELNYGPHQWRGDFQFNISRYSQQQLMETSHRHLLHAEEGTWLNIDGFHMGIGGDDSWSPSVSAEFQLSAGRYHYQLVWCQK
Sequence of Nonstructural protein 1 (Q194T2 whole entry): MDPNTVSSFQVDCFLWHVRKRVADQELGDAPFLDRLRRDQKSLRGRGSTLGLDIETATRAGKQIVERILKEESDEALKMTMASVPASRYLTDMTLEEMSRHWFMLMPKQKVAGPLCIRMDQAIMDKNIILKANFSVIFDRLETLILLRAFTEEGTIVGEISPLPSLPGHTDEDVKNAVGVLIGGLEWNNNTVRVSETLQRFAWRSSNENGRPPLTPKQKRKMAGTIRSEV

Compound: C[C@H]1CN([C@@H](C)CO)C(=O)c2cccc(NC(=O)c3ccncc3)c2O[C@@H]1CN(C)Cc1ccc(Cl)cc1
- AC50 [1]: 0.00712 µM (active)

Compound: CC(C)(C)[S+]([O-])N1Cc2cc(C(=O)NCc3ccc4c(c3)OCO4)nc(-c3cccc(C#CCC4CCCC4)c3)c2[C@H]1CCO (stereo partly drawn)
- AC50 [1]: 1.01 µM (active)

Compound: COc1ccccc1N=Nc1ccc(O)c2ncccc12
- EC50 [2]: > 160 µM (inactive)
- EC50 [3]: 1.17 µM (active)
- EC50 (cells [4]): 102 µM (active)
- EC50 [5]: 2.29 µM (active)
- EC50 [6]: 1.28 µM (active)
- EC50 (cells [7]): 38.7 µM (active)
- EC50 (Streptococcus): 10.3 µM (active)
- IC50 (Nonstructural protein 1): 12.4 µM (active)
- AC50 [8]: 3.68 µM (active)
- CC50 (Vero): 12.2 µM (active)
- AC50 (Caspase-6): 34.5 µM (active)
- AC50 [9]: 11.8 µM (active)

Compound: Cc1ccc(NN=C(S)Nc2ccc(C(C)C)cc2)c(C)c1
- IC50 (Beta-galactosidase): 66.1 µM (inactive)

Compound: COc1cc(/C=C2\C(=O)NN(c3ccc(C)cc3)C2=O)cc([N+](=O)[O-])c1O
- AC50 [10]: 86.9 µM (active)

Compound: CCOC(=O)[C@]12CCC=C1N(Cc1ccc3c(c1)OCO3)C(=O)[C@H](CC(=O)NCC13CC4CC(CC(C4)C1)C3)C2
- AC50 [11]: 16.5 µM (active)
- AC50 [12]: 34 µM (active)
- AC50 [13]: 22.7 µM (active)

Compound: O=C(CN(Cc1ccccc1F)S(=O)(=O)c1ccc(Cl)cc1)NCCC1=CCCCC1
- AC50 [11]: 4.11 µM (active)
- AC50 [13]: 4.59 µM (active)
- AC50 [14]: 6.77 µM (active)
- AC50 [15]: 25.6 µM (active)
